Patent publication US9045472B2, “Imidazoquinoline compounds” (ASTRAZENECA AB, priority 2010, dated 2015)

Legend:
[1] = molecular target: T1, human TLR7 (Homo sapiens, UniProt Q9NYK1); experiment: Human TLR7 assay (SEAP reporter in HEK293 cells); assay type: cell-based; conditions: HEK293 cell line expressing recombinant human TLR7 and pNiFty2-SEAP reporter; overnight incubation at 37° C., 0.1% DMSO; read-out: mean pEC50 (concentration producing half of the maximal level of SEAP induction) (converted)
T1 construct: expressed in transfected cells; host or cells: HEK293 cell line stably expressing the pNiFty2-SEAP reporter plasmid; TLR7 in pUNO vector, blasticidin selection
T1 sequence (Q9NYK1 27-1049): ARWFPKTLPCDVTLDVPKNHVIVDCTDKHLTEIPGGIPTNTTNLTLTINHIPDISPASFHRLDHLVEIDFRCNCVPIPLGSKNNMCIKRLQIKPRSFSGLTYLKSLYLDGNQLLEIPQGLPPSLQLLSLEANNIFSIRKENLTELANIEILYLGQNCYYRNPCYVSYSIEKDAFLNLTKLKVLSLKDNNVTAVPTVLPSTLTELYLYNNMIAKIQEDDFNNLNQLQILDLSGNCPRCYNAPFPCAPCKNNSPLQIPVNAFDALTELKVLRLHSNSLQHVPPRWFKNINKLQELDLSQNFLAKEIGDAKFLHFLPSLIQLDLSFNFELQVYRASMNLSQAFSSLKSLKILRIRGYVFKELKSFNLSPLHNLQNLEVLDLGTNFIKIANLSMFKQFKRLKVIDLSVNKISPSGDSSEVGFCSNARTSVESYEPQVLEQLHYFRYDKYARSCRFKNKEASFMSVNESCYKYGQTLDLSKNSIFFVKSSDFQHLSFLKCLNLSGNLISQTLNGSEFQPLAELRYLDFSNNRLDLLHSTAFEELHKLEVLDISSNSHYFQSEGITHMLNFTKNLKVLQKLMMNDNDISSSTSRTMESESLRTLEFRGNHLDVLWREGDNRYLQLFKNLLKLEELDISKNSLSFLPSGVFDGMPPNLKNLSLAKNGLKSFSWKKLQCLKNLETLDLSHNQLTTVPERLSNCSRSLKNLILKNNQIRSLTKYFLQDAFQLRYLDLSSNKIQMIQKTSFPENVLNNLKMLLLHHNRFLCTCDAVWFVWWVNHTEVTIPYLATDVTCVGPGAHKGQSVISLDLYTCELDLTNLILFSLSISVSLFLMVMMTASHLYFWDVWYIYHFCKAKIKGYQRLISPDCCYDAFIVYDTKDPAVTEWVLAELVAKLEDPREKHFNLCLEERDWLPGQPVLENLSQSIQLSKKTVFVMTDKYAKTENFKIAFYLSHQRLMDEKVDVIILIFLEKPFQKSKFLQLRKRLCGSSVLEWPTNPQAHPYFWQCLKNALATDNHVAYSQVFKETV
Text: Recombinant human TLR7 was stably expressed in a HEK293 cell line already stably expressing the pNiFty2-SEAP reporter plasmid; integration of the reporter gene was maintained by selection with the antibiotic zeocin. The most common variant sequence of human TLR7 (represented by the EMBL sequence AF240467) was cloned into the mammalian cell expression vector pUNO and transfected into this reporter cell-line. Transfectants with stable expression were selected using the antibiotic blasticidin. In this reporter cell-line, expression of secreted alkaline phosphatase (SEAP) was controlled by an NFkB/ELAM-1 composite promoter comprising five NFkB sites combined with the proximal ELAM-1 promoter. TLR signaling leads to the translocation of NFkB and activation of the promoter results in expression of the SEAP gene. TLR7-specific activation was assessed by determining the level of SEAP produced following overnight incubation of the cells at 37° C. with the test compound prepared above in the presence of 0.1% (v/v) dimethylsulfoxide (DMSO). Concentration dependent induction of SEAP production by compounds was expressed as the concentration of compound which produced half of the maximal level of SEAP induction for that compound (pEC50).

[2] = Gravimetric Vapour Sorption (GVS); assay type: physicochemical
Description: Gravimetric Vapour Sorption (GVS) profiles were measured using a TA Instruments Q5000SA instrument. Approximately 1 mg to 5 mg of the solid sample was placed into a metal vessel, and the weight of the sample was recorded during a dual cycle step method (40 to 90 to 0 to 90 to 0% relative humidity (RH), in steps of 10% RH).

[3] = Cynomolgous monkey plasma stability; assay type: in vitro ADME; conditions: 37° C., 1 μM final incubation concentration, parent compound by LC-MS-MS
Description: Cynomolgous Monkey Plasma Stability
(§1) To determine the half life of the test compound in cynomolgous monkey plasma, incubations were performed at 37° C. in a shaking water bath. The test compound (5 μL of a 100 μM stock in MeCN) was spiked into 0.495 mL plasma to give a final incubation concentration of 1 μM. Aliquots (50 μL) were withdrawn at various time points (typically 0, 20 and 40 sec, 1, 2, 3, 5 and 10 mins) and quenched into MeCN (300 μL) followed by analysis for parent compound by LC-MS-MS (MRM mode). The half life was calculated from the decline of test compound peak area over time

[4] = Human plasma stability; assay type: in vitro ADME; conditions: 37° C., 1 μM final incubation concentration, parent compound by LC-MS-MS
Description: as §1, with “in human” for “in cynomolgous monkey”, “bath. Compound” for “bath. The test compound”, “over time.” for “over time”

EC50 [1] [µM] | mass increase at 80% relative humidity, cycle 1 ([2]; cycle 1) [%] | mass increase at 80% relative humidity, cycle 2 ([2]; cycle 2) [%] | half-life at 1 μM [3] [s] | half-life at 1 μM [4] [s] | SMILES
0.0398 | 0.5 | 0.64 | 72 | 18 | CCOCc1nc2c(N)nc3ccccc3c2n1CCCCN(Cc1cccc(CC(=O)OC)c1)C(=O)CN(CC)CC [Compound (I), Methyl (3-{[{4-[4-amino-2-(ethoxymethyl)-1H-imidazo[4,5-c]quinolin-1-yl]butyl}(N,N-diethylglycyl)amino]methyl}phenyl)acetate]
– | – | – | 660 | 42 | CCOCc1nc2c(N)nc3ccccc3c2n1CCCN(Cc1cccc(CC(=O)OC)c1)C(=O)CN(C)C [Comparative Example 1, Methyl 2-(3-((N-(3-(4-amino-2-(ethoxymethyl)-1H-imidazo[4,5-c]quinolin-yl)propyl)-2-(dimethylamino)acetamido)methyl)phenyl)acetate, reference compound]
